Key:
DNA gyrase subunit GyrB = DNA gyrase subunit GyrB (Mycobacterium tuberculosis, UniProt P9WG45); assay: SPR; assay type: binding
DNA gyrase subunit GyrA = DNA gyrase subunit GyrA (Mycobacterium tuberculosis, UniProt P9WG47); assay: SPR; assay type: binding
Sequence of DNA gyrase subunit GyrA (P9WG47 2-838): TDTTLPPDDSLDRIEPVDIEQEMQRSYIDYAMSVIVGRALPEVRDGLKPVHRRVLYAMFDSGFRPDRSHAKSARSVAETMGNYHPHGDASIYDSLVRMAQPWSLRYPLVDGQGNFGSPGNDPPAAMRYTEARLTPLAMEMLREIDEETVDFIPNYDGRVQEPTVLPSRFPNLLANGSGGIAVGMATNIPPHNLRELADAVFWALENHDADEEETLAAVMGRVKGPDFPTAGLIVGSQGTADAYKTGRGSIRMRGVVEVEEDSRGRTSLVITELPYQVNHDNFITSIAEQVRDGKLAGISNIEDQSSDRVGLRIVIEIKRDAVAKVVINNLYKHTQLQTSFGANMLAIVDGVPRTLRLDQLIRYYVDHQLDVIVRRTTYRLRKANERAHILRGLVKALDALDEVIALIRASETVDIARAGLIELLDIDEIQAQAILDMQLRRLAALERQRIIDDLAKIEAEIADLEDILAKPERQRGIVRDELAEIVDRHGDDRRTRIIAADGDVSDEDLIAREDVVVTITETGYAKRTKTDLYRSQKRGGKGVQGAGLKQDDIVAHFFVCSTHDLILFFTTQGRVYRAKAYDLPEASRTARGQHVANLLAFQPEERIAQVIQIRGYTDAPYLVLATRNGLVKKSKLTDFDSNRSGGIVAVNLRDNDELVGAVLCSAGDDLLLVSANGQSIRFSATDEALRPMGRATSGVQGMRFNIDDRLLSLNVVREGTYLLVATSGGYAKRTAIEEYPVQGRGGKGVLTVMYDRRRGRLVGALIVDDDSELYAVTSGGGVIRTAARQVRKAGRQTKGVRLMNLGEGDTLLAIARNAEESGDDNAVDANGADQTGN

Sequence of DNA gyrase subunit GyrB (P9WG45 whole entry): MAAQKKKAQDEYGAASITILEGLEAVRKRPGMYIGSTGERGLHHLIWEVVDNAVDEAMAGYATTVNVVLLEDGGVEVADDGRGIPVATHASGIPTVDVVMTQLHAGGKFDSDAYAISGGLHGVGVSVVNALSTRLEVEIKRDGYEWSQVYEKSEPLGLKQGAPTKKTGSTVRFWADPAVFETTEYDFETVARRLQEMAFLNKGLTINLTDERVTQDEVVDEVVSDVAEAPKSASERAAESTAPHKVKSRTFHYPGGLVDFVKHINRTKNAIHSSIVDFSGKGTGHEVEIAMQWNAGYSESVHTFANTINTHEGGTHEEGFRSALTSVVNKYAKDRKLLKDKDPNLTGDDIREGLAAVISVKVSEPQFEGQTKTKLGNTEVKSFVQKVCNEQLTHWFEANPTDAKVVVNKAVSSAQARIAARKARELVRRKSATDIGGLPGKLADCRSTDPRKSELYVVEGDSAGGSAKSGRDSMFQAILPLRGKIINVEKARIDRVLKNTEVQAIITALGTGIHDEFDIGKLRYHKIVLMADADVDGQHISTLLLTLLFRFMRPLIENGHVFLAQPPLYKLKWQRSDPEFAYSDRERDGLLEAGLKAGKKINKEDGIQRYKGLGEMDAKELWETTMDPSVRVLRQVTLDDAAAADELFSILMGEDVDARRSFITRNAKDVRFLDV

SMILES | Kd (DNA gyrase subunit GyrB) | Kd (DNA gyrase subunit GyrA)
CN1CCC[C@H]1CCNC(=O)c1cn2c3c(c(N4CCC(c5cnccn5)C4)c(F)cc3c1=O)Oc1cc3ccccc3cc1-2 (stereo partly shown) [quarfloxin] | 30.1 µM | 2.89 µM
COc1cccc2c1C(=O)c1c(O)c3c(c(O)c1C2=O)C[C@@](O)(/C(CO)=N/NC(=O)CCCCCN1C(=O)C=CC1=O)C[C@@H]3O[C@H]1C[C@H](N)[C@H](O)[C@H](C)O1 [aldoxorubicin] | 0.324 µM | 0.4 µM
